≈ marks a conversion by molar mass, not a printed value. Where a name gives a salt, the structure may show the parent alone. Some results are limits rather than exact numbers.

Consider 42 compounds from patent publication US20100317607A1, “USE OF COMPOUNDS FOR PREPARING ANTI-TUBERCULOSIS AGENTS” (INFECTIOUS DISEASE RESEARCH INSTITUTE, priority 2007, published 2010).

For the test, the system named is H37Rv strain of M. tuberculosis. Description: Alamar Blue Susceptibility Test (MABA). In kind it is cell-based. As to conditions: Mycobacterium tuberculosis; H37Rv strain of M. tuberculosis; Alamar Blue; read-out: MABA (TB growth inhibition, colourimetric assay). For orientation: Resazurin is reduced to fluorescent resorufin, in cell work by metabolically active cells.

As to `OC[C@H](Cc1ccccc1)Nc1nc(N2CCCCC2)nc2ccccc12` [Compound 143, (S)-3-Phenyl-2-(2-(piperidin-1-yl)quinazolin-4-ylamino)propan-1-ol hydrochloride], the MIC was in the range of 10 to 50 µM.
Regarding `COC[C@H](Cc1ccccc1)Nc1nc(N2CCCCC2)nc2ccccc12` [Compound 144, (S)—N-(1-Methoxy-3-phenylpropan-2-yl)-2-(piperidin-1-yl)quinazolin-4-amine], the MIC is 10 to 50 µM (≈ 3.77 to 18.8 µg/mL).
As for `OC[C@H](Nc1nc(N2CCCCC2)nc2ccccc12)c1ccccc1` [Compound 145, (R)-2-Phenyl-2-(2-(piperidin-1-yl)quinazolin-4-ylamino)ethanol hydrochloride], the MIC fell in the range of 50 to 128 µM.
Regarding `FC1(F)CCN(c2nc(NCc3ccc(Cl)cc3)nc3ccccc23)CC1` [Compound 146, N-(4-Chlorobenzyl)-4-(4,4-difluoropiperidin-1-yl)quinazolin-2-amine hydrochloride], the MIC was in the range of 10 to 50 µM.
The result for `FC1(F)CCN(c2nc(NCc3ccc(C(F)(F)F)cc3)nc3ccccc23)CC1` [Compound 147, 4-(4,4-Difluoropiperidin-1-yl)-N-(4-(trifluoromethyl)benzyl)quinazolin-2-amine] reads below 10 µM.
On to `Fc1ccc(CNc2nc(N3CCC(F)(F)CC3)c3ccccc3n2)c(F)c1` [Compound 148, N-(2,4-Difluorobenzyl)-4-(4,4-difluoropiperidin-1-yl)quinazolin-2-amine], for which the MIC fell in the range of 10 to 50 µM (≈ 3.9 to 19.5 µg/mL).
With `Fc1ccc(CNc2nc(N3CCC(F)(F)CC3)c3ccccc3n2)cc1` [Compound 149, 4-(4,4-Difluoropiperidin-1-yl)-N-(4-fluorobenzyl)quinazolin-2-amine hydrochloride], the MIC lay in the range of 10 to 50 µM.
With `COc1cc2nc(N3CCCCC3)nc(NCc3ccc(F)cc3)c2cc1OC` [Compound 150, N-(4-Fluorobenzyl)-6,7-dimethoxy-2-(piperidin-1-yl)quinazolin-4-amine hydrochloride], the MIC was in the range of 10 to 50 µM.
`COc1cc2nc(N3CCC(F)(F)CC3)nc(NCc3ccc(F)cc3)c2cc1OC` [Compound 151, 2-(4,4-Difluoropiperidin-1-yl)-N-(4-fluorobenzyl)-6,7-dimethoxyquinazolin-4-amine hydrochloride]: the MIC was in the range of 10 to 50 µM.
Under `Fc1ccc(C2(Nc3nc(N4CCCCC4)nc4ccccc34)CC2)cc1` [Compound 152, N-(1-(4-Fluorophenyl)cyclopropyl)-2-(piperidin-1-yl)quinazolin-4-amine] stands 10 to 50 µM (≈ 3.62 to 18.1 µg/mL); under `Fc1ccc(C2(Nc3nc(N4CCC(F)(F)CC4)nc4ccccc34)CC2)cc1` [Compound 153, 2-(4,4-Difluoropiperidin-1-yl)-N-(1-(4-fluorophenyl)cyclopropyl)quinazolin-4-amine], 50 to 128 µM (≈ 19.9 to 51 µg/mL).
The result for `Fc1ccc(CNc2nc(NC3(c4ccc(F)cc4)CC3)c3ccccc3n2)cc1` [Compound 154, N^2-(4-Fluorobenzyl)-N^4-(1-(4-fluorophenyl)cyclopropyl)quinazoline-2,4-diamine] reads below 10 µM.
As for `Fc1ccc(CNc2nc(N3CCCCC3)nc3cc(F)ccc23)cc1` [Compound 155, 7-Fluoro-N-(4-fluorobenzyl)-2-(piperidin-1-yl)quinazolin-4-amine], the MIC was below 10 µM.
Regarding `Fc1ccc(CNc2nc(N3CCC(F)(F)CC3)nc3cc(F)ccc23)cc1` [Compound 156, 2-(4,4-Difluoropiperidin-1-yl)-7-fluoro-N-(4-fluorobenzyl)quinazolin-4-amine], the MIC was in the range of 10 to 50 µM (≈ 3.9 to 19.5 µg/mL).
In the case of `Fc1ccc(CNc2nc(NCc3ccc(F)cc3)c3ccc(F)cc3n2)cc1` [Compound 157, 7-Fluoro-N^2, N^4-bis(4-fluorobenzyl)quinazoline-2,4-diamine], the MIC is below 10 µM.
For the compound `Cc1ccc(CNc2nc(NCc3ccc(F)cc3)nc3ccccc23)o1` [Compound 158, N^2-(4-Fluorobenzyl)-N^4-((5-methylfuran-2-yl)methyl)quinazoline-2,4-diamine hydrochloride], the MIC fell in the range of 10 to 50 µM.
As for `Fc1ccc(CNc2nc(NCc3ccc(C(F)(F)F)o3)c3ccccc3n2)cc1` [Compound 159, N^2-(4-Fluorobenzyl)-N4-((5-(trifluoromethyl)furan-2-yl)methyl)quinazoline-2,4-diamine hydrochloride], the MIC was below 10 µM.
In the case of `FC(F)(F)c1ccc(CNc2nc(N3CCCCC3)nc3ccccc23)o1` [Compound 160, 2-(Piperidin-1-yl)-N-((5-(trifluoromethyl)furan-2-yl)methyl)quinazolin-4-amine hydrochloride], the MIC was below 10 µM.
Under `FC1(F)CCN(c2nc(NCc3ccc(C(F)(F)F)o3)c3ccccc3n2)CC1` [Compound 161, 2-(4,4-Difluoropiperidin-1-yl)-N-((5-(trifluoromethyl)furan-2-yl)methyl)quinazolin-4-amine hydrochloride] stands 10 to 50 µM; under `FC(F)(F)Oc1ccc(CNc2nc(N3CCCCC3)nc3ccccc23)cc1` [Compound 162, 2-(Piperidin-1-yl)-N-(4-(trifluoromethoxy)benzyl)quinazolin-4-amine], below 10 µM.
As to `FC1(F)CCN(c2nc(NCc3ccc(OC(F)(F)F)cc3)c3ccccc3n2)CC1` [Compound 163, 2-(4,4-Difluoropiperidin-1-yl)-N-(4-(trifluoromethoxy)benzyl)quinazolin-4-amine], the MIC was in the range of 10 to 50 µM (≈ 4.38 to 21.9 µg/mL).
Turning to `Oc1ccc(CNc2nc(N3CCCCC3)nc3ccccc23)cc1` [Compound 164, 4-((2-(Piperidin-1-yl)quinazolin-4-ylamino)methyl)phenol], the MIC lay within 10 to 50 µM (≈ 3.34 to 16.7 µg/mL).
With `Oc1ccc(CNc2nc(NCc3ccc(F)cc3)nc3ccccc23)cc1` [Compound 165, 4-((2-(4-Fluorobenzylamino)quinazolin-4-ylamino)methyl)phenol], the MIC fell in the range of 10 to 50 µM (≈ 3.74 to 18.7 µg/mL).
On to `Fc1ccc(CNc2nc(NCc3ccc(F)cc3)c3sccc3n2)cc1` [Compound 166, N^2,N^4-bis(4-Fluorobenzyl)thieno[3,2-d]pyrimidine-2,4-diamine], for which the MIC was 10 to 50 µM (≈ 3.82 to 19.1 µg/mL).
Under `Cc1ccc(CNc2nc(N3CCCCC3)nc3ccccc23)o1` [Compound 167, N-((5-Methylfuran-2-yl)methyl)-2-(piperidin-1-yl)quinazolin-4-amine] stands below 10 µM; under `COc1cc2nc(NCc3ccc(F)cc3)nc(NCc3ccc(F)cc3)c2cc1OC` [Compound 168, N^2,N^4-bis(4-Fluorobenzyl)-6,7-dimethoxyquinazoline-2,4-diamine], 10 to 50 µM (≈ 4.36 to 21.8 µg/mL); under `Fc1ccc(CNc2nc(N3CCOCC3)nc3ccccc23)cc1` [Compound 169, N-(4-Fluorobenzyl)-2-morpholinoquinazolin-4-amine], 10 to 50 µM (≈ 3.38 to 16.9 µg/mL).
`Cc1ccc(CNc2nc(NCc3ccc(F)cc3)c3ccccc3n2)o1` [Compound 170, N^4-(4-Fluorobenzyl)-N^2-((5-methylfuran-2-yl)methyl)quinazoline-2,4-diamine]: the MIC lay within 10 to 50 µM (≈ 3.62 to 18.1 µg/mL).
On to `Fc1ccc(CNc2nc(NCc3cc4ccccc4s3)nc3ccccc23)cc1` [Compound 171, N^2-(Benzo[b]thiophen-2-ylmethyl)-N^4-(4-fluorobenzyl)quinazoline-2,4-diamine], for which the MIC lay in the range of 10 to 50 µM (≈ 4.15 to 20.7 µg/mL).
Consider `Fc1ccc(CNc2nc(N3CCCC3)nc3ccccc23)cc1` [Compound 172, N-(4-Fluorobenzyl)-2-(pyrrolidin-1-yl)quinazolin-4-amine], for which the MIC is below 10 µM.
On to `Fc1ccc(CNc2nc(N3CCCC3)nc3ncccc23)cc1` [Compound 173, N-(4-Fluorobenzyl)-2-(pyrrolidin-1-yl)pyrido[2,3-d]pyrimidin-4-amine], for which the MIC lay in the range of 10 to 50 µM (≈ 3.23 to 16.2 µg/mL).
Turning to `Fc1ccc(CNc2nc(N3CCCCC3)nc3ncccc23)cc1` [Compound 174, N-(4-Fluorobenzyl)-2-(piperidin-1-yl)pyrido[2,3-d]pyrimidin-4-amine], the MIC was in the range of 10 to 50 µM (≈ 3.37 to 16.9 µg/mL).
The result for `COC(=O)[C@@H](Nc1nc(N2CCCCC2)nc2ccccc12)c1ccccc1` [Compound 175, (S)-Methyl 2-phenyl-2-(2-(piperidin-1-yl)quinazolin-4-ylamino)acetate] reads 10 to 50 µM (≈ 3.76 to 18.8 µg/mL); that for `COC(=O)[C@H](Cc1ccccc1)Nc1nc(N2CCCCC2)nc2ccccc12` [Compound 176, (S)-Methyl 3-phenyl-2-(2-(piperidin-1-yl)quinazolin-4-ylamino)propanoate], 50 to 128 µM (≈ 19.5 to 50 µg/mL).
Under `OC[C@@H]1CCCN1c1nc(NCc2ccccc2)c2ccccc2n1` [Compound 177, (S)-(1-(4-(Benzylamino)quinazolin-2-yl)pyrrolidin-2-yl)methanol] stands 50 to 128 µM (≈ 16.7 to 42.8 µg/mL).
Under `COC[C@@H]1CCCN1c1nc(NCc2ccccc2)c2ccccc2n1` [Compound 178, (S)—N-Benzyl-2-(2-(methoxymethyl)pyrrolidin-1-yl)quinazolin-4-amine] stands 50 to 128 µM (≈ 17.4 to 44.6 µg/mL); under `Fc1ccc(CNc2nc(N3Cc4ccccc4C3)nc3ccccc23)cc1` [Compound 179, N-(4-Fluorobenzyl)-2-(isoindolin-2-yl)quinazolin-4-amine hydrochloride], below 10 µM; under `COC(=O)[C@@H]1CCCN1c1nc(NCc2ccccc2)c2ccccc2n1` [Compound 180, (S)-Methyl 1-(4-(benzylamino)quinazolin-2-yl)pyrrolidine-2-carboxylate], 50 to 128 µM (≈ 18.1 to 46.4 µg/mL).
Take `COc1cc2c(cc1OC)CN(c1nc(NCc3ccccc3)c3ccccc3n1)CC2` [Compound 181, N-Benzyl-2-(6,7-dimethoxy-3,4-dihydroisoquinolin-2(1H)-yl)quinazolin-4-amine]: the MIC is 10 to 50 µM (≈ 4.27 to 21.3 µg/mL).
Under `Fc1ccc(CNc2nc(N3CCCC3)nc3cccc(Cl)c23)cc1` [Compound 182, 5-Chloro-N-(4-fluorobenzyl)-2-(pyrrolidin-1-yl)quinazolin-4-amine] stands 10 to 50 µM (≈ 3.57 to 17.8 µg/mL).
For `Fc1ccc(CNc2nc(N3CCCCC3)nc3cccc(Cl)c23)cc1` [Compound 183, 5-Chloro-N-(4-fluorobenzyl)-2-(piperidin-1-yl)quinazolin-4-amine], the MIC fell in the range of 10 to 50 µM (≈ 3.71 to 18.5 µg/mL).
Turning to `CC(C)(C)OC(=O)N1CCc2c(nc(N3CCCCC3)nc2NCc2ccc(F)cc2)C1` [Compound 184, tert-Butyl 4-(4-fluorobenzylamino)-2-(piperidin-1-yl)-5,6-dihydropyrido[3,4-d]pyrimidine-7(8H)-carboxylate], the MIC fell in the range of 50 to 128 µM (≈ 22.1 to 56.5 µg/mL).
